# Results reported in a melting point compilation (Tetko et al.; mined from patent text by program, amines drawn as free bases though some values may be those of a salt).
row,melting point,SMILES
1,159 to 162 °C,CC(=O)N1C(C(=O)O)CSC1c1ccccc1OCCO[N+](=O)[O-] (stereo not drawn)
2,150 °C,CC(c1cc(F)ccc1O)c1cc(Cl)cc(Cl)c1O (stereo not drawn)
3,42 to 44 °C,Fc1ccc(OCCCCCN2CCN(c3nccs3)CC2)cc1
4,95 °C,CC(=O)OC1CSC(Oc2cncc(-c3c(C)n[nH]c3C)c2)C(OC(C)=O)C1OC(C)=O (stereo not drawn)
5,250 to 253 °C,NCc1cccc(C2CCN(c3cc4c(cc3F)c(=O)c(C(=O)O)cn4C3CC3)C2)c1 (stereo not drawn)
6,152 to 153 °C,Cc1cc2nc(Cl)nc(Cl)c2s1
7,154 to 156 °C,CC(C)n1nc(-c2c(-c3ccccc3)nn3ccc(OCCc4ccccc4)cc23)ccc1=O
8,64 to 66 °C,CC(C)C(NC(=O)c1ccc(C(=O)NCC(=O)OCc2ccccc2)cc1)C(=O)N(CC(=O)NC(C(=O)C(F)(F)F)C(C)C)C1Cc2ccccc2C1 (mixture of isomers)
9,64.5 to 65.5 °C,CCCCCCCCCCOc1csc(-c2ccc(N)cc2)c1OCCCCCCCCCC
10,92 to 95 °C,O=C(c1cc2c([nH]c3ccccc32)s1)N1CCOCC1
11,128 to 136 °C,CCc1ccc2c(c1)NC(=O)C2=O
12,220 °C,Nc1ncc2sc(=O)n(C3OC(CO)C(O)C3O)c2n1 (stereo not drawn)
13,128 to 129 °C,CCOC(=O)c1cccc(-c2c(OC)cccc2C(=O)O)c1
14,88 to 90 °C,FC(F)c1cn(-c2c(Cl)cc(C(F)(F)F)cc2Cl)nc1C(F)(F)F
15,143 to 145 °C,COc1cc(C(=O)N(CCCC(=O)O)c2cccc3ccccc23)cc(OC)c1OC
16,> 200 °C,N#CCNc1nc(N2CCc3ccccc3CC2)c(C#N)c(=O)[nH]1
17,208 to 210 °C,N#Cc1cc(Cl)nc(NN)c1
18,150 to 151 °C,CC(C)=CCc1c(O)ccc(C(=O)C=Cc2ccc(O)cc2O)c1O
19,113 to 115 °C,CC(C)(C)OCCCC1c2ccccc2COc2cccc(O)c21 (stereo not drawn)
20,159 to 160 °C,COc1cc(Cl)c2c(=O)c(-c3ccccc3C)coc2c1
21,126 to 127 °C,COC(=O)CCCc1ccc(CN2CCN(c3ccncc3)CC2)cc1
22,242 °C,Cc1c(C(=O)Nc2ccc(N3CCN(C4CCOCC4)CC3)c(C#N)c2)cnn1-c1ccc(Cl)c(Cl)c1
23,89 to 91 °C,OCCNC(=S)NC1CCc2ccccc2C1 (stereo not drawn)

row,melting point,SMILES
1,67 to 71 °C,CCCCOc1cccc(CCNC(=O)C=CC2CCCCC2)c1
2,184 to 187 °C,COc1ccc(N=C2SC(=CC(=O)O)C(=O)N2c2ccc(OC)cc2)cc1
3,80 to 82 °C,CCCCOC(=O)NCc1cccc(C(=O)C=CN(C)C)c1
4,91 to 93 °C,CC(=O)N(O)Cc1cccc(C#Cc2ccccc2)c1
5,213 to 215 °C,CCOC(=O)c1cc(=O)cc(-c2ccc(O)cc2)o1
6,263 °C,Cn1cc(-c2cc(-c3cnc4c(c3)CC(=O)N4)ccn2)n(-c2ccc(C(C)(C)C#N)cc2)c1=O
7,253 to 255 °C,CCCCNc1nc(-c2ccc(=O)n(C)n2)c(-c2ccccc2)nc1N
8,53 to 56 °C,O=C1C(=Cc2ccccc2)CCc2cc(OCCc3c[nH]cn3)ccc21
9,126 to 127 °C,COC(=O)c1nsc(S)n1
10,208 °C,N#Cc1cnn2c(C(F)(F)F)cc(-c3ccccn3)nc12
11,101 to 102 °C,CC(=O)N1CC(C)=NN(c2cc(Cl)c(Cc3ccc(Cl)cc3)c(Cl)c2)C1=O
12,115 to 120 °C,COCON=C(C(C)=O)C(=O)OC
13,173 to 174 °C,Cc1cc(OCCN2CCc3ccc(NS(C)(=O)=O)cc3CC2)ccc1NS(C)(=O)=O
14,98 to 100 °C,CC(C)c1ccc2oc(C(O)COc3ccc(CO)cc3)cc2c1 (stereo not drawn)
15,96.8 °C,Cn1cncc1C(c1ccc(Cl)cc1)c1ccc2c(c1)c(-c1ccccc1)cc(=O)n2C (stereo not drawn)
16,117 to 120 °C,NCC1(O)c2ccccc2C=Cc2ccccc21
17,103 to 106 °C,Nc1nc2c(s1)CCN(CC=Cc1ccccc1Br)CC2
18,135 to 136 °C,COc1cc(CP(=O)(OC)OC)c2c(CP(=O)(OC)OC)cc(OC)cc2c1
19,230 to 235 °C,O=C(Cn1cnc2ccccc21)Nc1ccc(-n2nc(C3CC3)cc2C2CC2)cc1
20,119 to 121 °C,O=C(CCCCc1ccccc1)Nc1ccc2c(c1O)C(=O)CC2
21,165 to 166 °C,FC(F)(F)c1cc(Cl)ccc1N=C(Cl)n1cncn1
22,162 to 163 °C,OCC1OC(n2c(Cl)nc3ccc(Cl)cc32)C(O)C1O (stereo not drawn)
23,223 °C,Cc1c(C(=O)Nc2ccc(N3CCC(N4CCOCC4)CC3)c(C#N)c2)cnn1-c1ccccc1

row,melting point,SMILES
1,75 to 76 °C,CS(=O)(=O)c1ccc(-n2nc(C(F)(F)F)cc2-c2ccc(-c3cccs3)cc2)cc1F
2,70 to 76 °C,CCn1ncc(C(=O)c2ccc(S(C)(=O)=O)c(CO)c2Cl)c1O
3,241 to 242 °C,CC1(C)CCC(C)(C)c2cc(C(N)COc3ccc(C(=O)O)c(O)c3)ccc21 (stereo not drawn)
4,181 to 183 °C,CC/C(=C(\c1ccc(/C=C/C(=O)O)cc1)c1ccc(OP(=O)(O)O)cc1)c1ccccc1
5,52 to 57 °C,CCCc1c(OCCCOc2cccc(NC(=O)C(=O)OCC)c2)ccc(C(C)=O)c1O
6,174 to 176 °C,CCOC(=O)C(NC=O)=C(c1ccc(F)cc1)c1ccc(F)cc1
7,127 to 129 °C,CCCCCCNC(=O)C1=C(C(=O)Nc2cc(OC3CCC(C)C3)c(Cl)cc2F)CCCC1 (stereo not drawn)
8,204 to 207 °C,COc1cccc2c1C=C(C(=O)O)C(C(F)(F)F)O2 (stereo not drawn)
9,96 to 97 °C,C=CCONC(=O)c1c(Cl)nn(C)c1Cl
10,190 to 193 °C,CN(C)C(=O)Cc1c(C(=O)c2ccccc2)[nH]c2cc(Cl)ccc12
11,196 to 205 °C,O=[N+]([O-])c1cccc(-c2cc3c(Cl)ncnc3o2)c1
12,218 to 219 °C,CC(=O)c1ccc2c(c1)[C@@H](N1CCCC1=O)[C@H](O)C(C)(C)O2 (relative stereo)
13,191 to 193 °C,CS(=O)(=O)c1ccc(C(=O)c2cnoc2C2CC2)c(C(F)(F)F)c1S(C)(=O)=O
14,150 to 152 °C,CC(C)NC(=O)N1CC(Oc2cccc(C(F)(F)F)c2)C1
15,181 to 183 °C,CN1CN(C2CCCC2)CN(c2nc3c(s2)C(=O)CC(C)(C)C3)C1=O
16,157 to 159 °C,CC[C@H]1COC(=O)N1c1nc(-c2ccc(C#N)cc2)c(Cl)s1
17,86 to 90 °C,COC(=O)CC1=C(C)Cc2cc(F)c(F)cc21
18,180 to 181 °C,O=C(O)CCC1CCCC2CC(=O)NC12 (stereo not drawn)
19,74 to 78 °C,CSC(=NC(=O)N(C)C)NC(=O)NC(C)(C)C
20,165 to 167 °C,Nc1cccc(-c2ccc(CCN3CCN(CCc4ccc(F)cc4)CC3)cc2)n1
21,177 to 179 °C,CCC1(c2ccccc2)Cc2cc(O)c(Cl)c(Cl)c2C1=O (stereo not drawn)
22,92 °C,COC(=O)CCCCc1csc(N=C2SC[C@@H]3Cc4ccccc4CN23)n1
23,223 to 226 °C,CCCOc1ccccc1-c1nc2cc3ncn(CC4CCCCC4)c3cc2c(=O)[nH]1

row,SMILES,melting point
1,CNC(=S)N(C)Cc1ccc(Br)nc1,107 to 108 °C
2,CCn1c(C)c(C(=O)c2ccc(C)c3ccccc23)c2ccccc21,136 to 137 °C
3,CC(C)(C)NCC(O)c1ccc(F)cc1 (stereo not drawn),117 °C
4,Cc1[nH]cnc1Cc1cn(C)c2ccccc2c1=O,110 to 113 °C
